# Where two headings read alike, the source gives them in different places.
# What was measured:
# [1] = system: C. parapsilosis; assay: Broth microdilution MIC; assay type: cell-based
# [2] = system: Escherichia coli NCTC 12923; assay: Broth microdilution MIC; assay type: cell-based
# [3] = system: C. parapsilosis 3209; assay: Broth microdilution MIC; assay type: cell-based
# [4] = system: EMR Staphylococcus aureus 15 NCTC 13616; assay: Broth microdilution MIC; assay type: cell-based
# [5] = system: C. tropicalis 8760; assay: Broth microdilution MIC; assay type: cell-based; details: C. tropicalis 8760
# [6] = system: Acinetobacter baumannii AYE; assay: Broth microdilution MIC; assay type: cell-based
# [7] = system: HeLa; assay: In vitro toxicity for cell line; assay type: cell-based, human; details: for EC50: Homo sapiens, read-out: Toxicity (EC50)
# Text: (§1) TABLE 2 Toxicity of bolaamphiphiles for two cell lines^a | column: Toxicity (EC50 [μg/ml]) of: / 12-bis-THA Cl2; Toxicity (EC50 [μg/ml]) of: / Dequalinium; Toxicity (EC50 [μg/ml]) of: / Quino-bola; Toxicity (EC50 [μg/ml]) of: / Penta-bola; Toxicity (EC50 [μg/ml]) of: / Hepta-bola; Toxicity (EC50 [μg/ml]) of: / Octa-bola; Toxicity (EC50 [μg/ml]) of: / Octa-C10; Toxicity (EC50 [μg/ml]) of: / Octa-C8; Toxicity (EC50 [μg/ml]) of: / Octa-C6
# [8] = system: HEK293; assay: In vitro toxicity for cell line; assay type: cell-based, human; details: for EC50: Homo sapiens
# Text: as §1
# [9] = system: VR Enterococcus faecium NCTC 12204; assay: Broth microdilution MIC; assay type: cell-based
# [10] = system: C. krusei 3876; assay: Broth microdilution MIC; assay type: cell-based
# [11] = Patch-clamp conductance in model membranes; details: bilayers composed of DPhPG
# Procedure: Giant unilamellar vesicles (GUVs) composed of DiPhytanoly PhosphatidylGlycerol (DPhPG) were prepared in the presence of 1 M sorbitol by the electroformation method in an indium-tin oxide (ITO)-coated glass chamber connected to the Nanion Vesicle Prep Pro setup (Nanion Technologies GmbH, Munich, Germany) using a 3-V peak-to-peak AC voltage at a frequency of 5 Hz for 140 min at 37°C ([30][–][32]). Bilayers were formed by adding the GUV solution to a buffer containing 250 mM KCl, 50 mM MgCl2, and 10 mM HEPES (pH 7.00) onto an aperture in a borosilicate chip (Port-a-Patch; Nanion Technologies) and applying 7,000 to 9,000 Pa negative pressure, resulting in a solvent-free membrane with a resistance in the GΩ range. […] After formation, a small amount of bolalipid stock solution (in water) was added to 50 μL of buffer solution in order to obtain its active concentration. All the experiments were carried out with a positive holding potential of 50 mV. […] For all the experiments, a minimum of 6 concordant repeats were done. Current traces were recorded at a sampling rate of 50 kHz using an EPC-10 amplifier from HEKA Elektronik (Lambrecht, Germany). The system was computer controlled by PatchControl software (Nanion) and GePulse (Michael Pusch, Genoa, Italy [http://users.ge.ibf.cnr.it/pusch/software-mik.htm]). […]
# [12] = system: Pseudomonas aeruginosa NCTC 13437; assay: Broth microdilution MIC; assay type: cell-based
# [13] = system: C. glabrata 8018; assay: Broth microdilution MIC; assay type: cell-based; details: C. glabrata 8018
# [14] = system: EMR Staphylococcus aureus 16 NCTC 13277; assay: Broth microdilution MIC; assay type: cell-based
# [15] = system: C. albicans 3281; assay: Broth microdilution MIC; assay type: cell-based, Candida albicans; details: C. albicans 3281
# [16] = system: G. vaginalis KC1; assay: Anaerobic broth microdilution MIC (BHI, 5% horse serum); assay type: cell-based, Gardnerella vaginalis; details: Gardnerella vaginalis, read-out: MIC
# [17] = system: M. tuberculosis Bleupan; assay: Selectivity index (toxicity/potency); assay type: cell-based, Mycobacterium tuberculosis; details: ratio of average toxicity (HEK293 and HeLa) to potency
# Text: TABLE 3 Selectivity indices of bolaamphiphiles | column: Selectivity of^a: / 12-bis-THA Cl2; Selectivity of^a: / Dequalinium; Selectivity of^a: / Penta-bola; Selectivity of^a: / Octa-bola; Selectivity of^a: / Octa-C8; Selectivity of^a: / Octa-C6
# [18] = system: G. vaginalis KC3; assay: Anaerobic broth microdilution MIC (BHI, 5% horse serum); assay type: cell-based, Gardnerella vaginalis; details: Gardnerella vaginalis, read-out: MIC
# [19] = system: Gram-negative bacteria (avg); assay: Selectivity index (toxicity/potency); assay type: cell-based; details: ratio of average toxicity (HEK293 and HeLa) to average potency
# Text: TABLE 3 Selectivity indices of bolaamphiphiles | column: Selectivity of^a: / 12-bis-THA Cl2; Selectivity of^a: / Dequalinium; Selectivity of^a: / Quino-bola; Selectivity of^a: / Penta-bola; Selectivity of^a: / Hepta-bola; Selectivity of^a: / Octa-bola; Selectivity of^a: / Octa-C10; Selectivity of^a: / Octa-C8; Selectivity of^a: / Octa-C6
# [20] = system: G. vaginalis NCTC 10287; assay: Anaerobic broth microdilution MIC (BHI, 5% horse serum); assay type: cell-based, Gardnerella vaginalis; details: Gardnerella vaginalis, NCTC10287, read-out: MIC
# [21] = system: M. tuberculosis Bleupan; assay type: in vivo, Galleria mellonella
# [22] = Maximum solubility in water; assay type: physicochemical; details: ultrapure water, 40 °C, thermodynamic from solid
# Procedure: Stock solutions of bolalipids were prepared by dispersing the powder in ultrapure water, then stirring vigorously by vortexing, and sonicating in a 40°C bath sonicator for 20 min. The concentration of each stock solution corresponds to the highest solubility achieved in water for each bolalipid, using the method described above. DLS experiments were performed on a Malvern Zetasizer Nano (Malvern Instruments, Worcestershire, UK) in back-scattering mode at 20°C. There were three independent measurements of each sample and 12 runs for each measurement, with 10 s taken for each run. The attenuator index and measurement position were automatically adjusted. Fifty microliters of each sample was transferred into polystyrene semi-microcuvettes for determination of UV and visible wavelengths (Sarstedt).
# [23] = system: Candida auris TGD1912; assay: MIC; assay type: cell-based
# [24] = EMR Staphylococcus aureus 15 NCTC 13616
# [25] = average ± standard error from 3 independent repeats
# [26] = HEK293, average ± standard error from 3 independent repeats
# [27] = VR Enterococcus faecium NCTC 12204
# [28] = EMR Staphylococcus aureus 16 NCTC 13277
# [29] = Lodderomyces parapsilosis, read-out: MIC
# [30] = NCTC13616, EMR Staphylococcus aureus 15 NCTC 13616, read-out: MIC
# [31] = Candida tropicalis, read-out: MIC
# [32] = Acinetobacter baumannii AYE, read-out: MIC
# [33] = HEK293, average ± standard error from 3 independent repeats, read-out: Toxicity (EC50)
# [34] = NCTC12204, VR Enterococcus faecium NCTC 12204, read-out: MIC
# [35] = Pichia kudriavzevii, read-out: MIC
# [36] = Nakaseomyces glabratus, read-out: MIC
# [37] = NCTC13277, EMR Staphylococcus aureus 16 NCTC 13277, read-out: MIC
# [38] = Candida albicans, read-out: MIC
Structure (SMILES),MIC [1],MIC [2],MIC [3],"MIC [4, 24]",MIC [5],MIC ([6]; Acinetobacter baumannii AYE),"Toxicity (EC50) [7, 25]","Toxicity (EC50) [8, 26]","MIC [9, 27]",MIC [10],concentration required to induce any conductance [11],MIC [12],"MIC [1, 29]","MIC ([2]; NCTC12923, read-out: MIC)","MIC [3, 29]","MIC [5, 31]",Selectivity index [19],"MIC [10, 35]","MIC [13, 36]","MIC [15, 38]",other results
"Nc1c2c([n+](CCCCCCCCCCCC[n+]3c4c(c(N)c5ccccc53)CCCC4)c3ccccc13)CCCC2 [12-bis-THA Cl2, 12,12′-(Dodecane-1,12-diyl)-bis-(9-amino-1,2,3,4-tetrahydroacridinium) chloride]",2 µg/mL,4 µg/mL,1 µg/mL,0.25 µg/mL,0.25 µg/mL,16 µg/mL,7.1 ± 2.0 µg/mL,5.5 ± 2.0 µg/mL,0.5 µg/mL,0.5 µg/mL,90 µM,32 µg/mL,–,–,–,–,–,–,–,–,"MIC [13]: 0.25 µg/mL; MIC [14, 28]: 0.125 µg/mL; MIC [15]: 0.25 µg/mL"
"Cc1cc(N)c2ccccc2[n+]1CCCCCCCCCC[n+]1c(C)cc(N)c2ccccc21 [Dequalinium, dequalinium chloride, reference compound]",–,–,–,–,–,–,–,–,–,–,90 µM,–,8 µg/mL,32 µg/mL,4 µg/mL,0.5 µg/mL,0.69,1 µg/mL,0.5 µg/mL,0.5 µg/mL,"MIC [16]: 2 µg/mL; MIC [4, 30]: 8 µg/mL; MIC [6, 32]: 32 µg/mL; Selectivity index [17]: 6.35; EC50 [7, 25]: 34.7 ± 13.9 µg/mL; EC50 [8, 33]: 9.9 ± 3.3 µg/mL; MIC [18]: 2 to 4 µg/mL; MIC [9, 34]: 8 µg/mL; MIC ([12]; NCTC13437, read-out: MIC): > 32 µg/mL; MIC [14, 37]: 4 µg/mL; MIC [20]: 2 µg/mL; survival ([21]; 0.1 mg/kg): lower survival; survival ([21]; higher or lower doses than 0.1 mg/kg): indifferent"
Nc1c2c([n+](CCCCCCCCCCCC[n+]3c4c(c(N)c5ccccc53)CCCCCC4)c3ccccc13)CCCCCC2 [Octa-bola],–,–,–,–,–,–,–,–,–,–,–,–,1 µg/mL,2 µg/mL,0.5 µg/mL,0.25 µg/mL,0.53,0.5 µg/mL,0.5 µg/mL,0.5 µg/mL,"MIC [4, 30]: 0.125 µg/mL; MIC [6, 32]: 8 µg/mL; Selectivity index [17]: 17.3; EC50 [7]: 4.5 ± 0.7 µg/mL; EC50 ([8]; HEK293, read-out: Toxicity (EC50)): 3.8 ± 0.3 µg/mL; MIC [9, 34]: 0.5 µg/mL; MIC ([12]; NCTC13437, read-out: MIC): 32 µg/mL; MIC [14, 37]: 0.125 µg/mL; solubility at 20 min [22]: 360 µM; infected larvae rescued ([21]; 1 mg/kg): about half"
Nc1c2c([n+](CCCCCCCCCCCC[n+]3c4c(c(N)c5ccccc53)CCC4)c3ccccc13)CCC2 [Penta-bola],1 µg/mL,16 µg/mL,1 µg/mL,0.5 µg/mL,0.25 µg/mL,32 µg/mL,9.5 ± 1.7 µg/mL,7.9 ± 1.2 µg/mL,1 µg/mL,0.5 µg/mL,–,>32 µg/mL,–,–,–,–,–,–,–,–,"MIC [23]: 2 µg/mL; MIC [13]: 0.25 µg/mL; MIC [14, 28]: 0.5 µg/mL; MIC [15]: 0.25 µg/mL"
Cc1c(N)c2ccccc2[n+](CCCCCCCCCCCC[n+]2c(C)c(C)c(N)c3ccccc32)c1C [Quino-bola],–,–,–,–,–,–,–,–,–,–,–,> 32 µg/mL,2 µg/mL,8 to 16 µg/mL,0.5 to 2 µg/mL,0.25 µg/mL,0.55,1 µg/mL,0.25 µg/mL,0.25 µg/mL,"MIC ([4]; Staphylococcus aureus, NCTC13616): 1 µg/mL; MIC ([6]; Acinetobacter baumannii): 32 µg/mL; EC50 [7, 25]: 13.9 ± 9.5 µg/mL; EC50 [8, 33]: 13.6 ± 0.6 µg/mL; MIC ([9]; Enterococcus faecium, NCTC12204): 2 µg/mL; MIC ([14]; Staphylococcus aureus, NCTC13277): 1 µg/mL"
